Source: ChEMBL document CHEMBL1152039, “PIPERIDINE CARBOXYLIC ACID DERIVATIVES AS SIALYL LEWIS X MIMETICS” (Bioorg Med Chem Lett, 1997)

Experiments:
[1] = system: HL-60; test: Tested for the inhibition of HL60 cell adhesion to recombinant E-selectin-IgG fusion protein measured by cell culture assay.; assay type: functional, cell-based; conditions: Homo sapiens
[2] = system: HL-60; test: Tested for the inhibition of HL60 cell adhesion to recombinant P-selectin-IgG fusion protein measured by cell culture assay.; assay type: functional, cell-based; conditions: Homo sapiens
[3] = system: Rattus norvegicus; test: Tested for the inhibition of leukocyte adhesion in rat mesenteric venules in vivo at a dose of 3 mg/kg measured by intravital microscopy.; assay type: functional
[4] = species: Oryctolagus cuniculus; test: Percent incidence of heart arrhythmia and Ventricular fibrillation in isolated rabbit hearts at a concentration of 1 uM.; assay type: functional
[5] = system: Rattus norvegicus; test: Tested for the inhibition of leukocyte adhesion in rat mesenteric venules in vivo at a dose of 10 mg/kg measured by intravital microscopy.; assay type: functional
[6] = system: Rattus norvegicus; test: Tested for the inhibition of leukocyte adhesion in rat mesenteric venules in vivo at a dose of 1 mg/kg measured by intravital microscopy.; assay type: functional
[7] = species: Oryctolagus cuniculus; test: Percent incidence of heart arrhythmia and Ventricular fibrillation in isolated rabbit hearts at a concentration of 3 uM.; assay type: functional

IC50 [1] [mM] | IC50 [2] [mM] | Structure (SMILES) | inhibition in vivo at 3 mg/kg [3] [%] | Incidence [4] [%] | inhibition in vivo at 10 mg/kg [5] [%] | inhibition in vivo at 1 mg/kg [6] [%] | Incidence [7] [%]
5 | > 10 | O=C(O)C1CCN(C(=O)O[C@@H]2CCCC[C@H]2O[C@@H]2O[C@@H](CO)[C@H](O)[C@H](O)[C@H]2O)CC1 | 38 |  |  |  | 
> 10 | > 10 | O=C(O)C1CCN(C(=O)O[C@@H]2CCCC[C@H]2O[C@H]2O[C@@H](CO)[C@@H](O)[C@H](O)[C@H]2O)CC1 | 56 |  |  |  | 
> 5 | > 5 | CC1OC(OC2CCCCC2OC(=O)N2CCC(C(=O)O)CC2)C(O)C(O)C1O (centres undefined) | 69 | 50 | 81 | 64 | 
1.6 | 7.5 | CC1OC(OC2CCCCC2OC(=O)N2CCC(C(=O)O)(C(=O)O)CC2)C(O)C(O)C1O (centres undefined) | 49 | 50 |  |  | 
 |  | CC(=O)N[C@H]1[C@H]([C@@H](O)[C@@H](O)CO)O[C@@](O[C@@H]2[C@H](O)[C@H](O[C@H]3[C@H](O[C@@H]4O[C@@H](C)[C@@H](O)[C@H](O)[C@@H]4O)[C@H](NC(C)=O)C(O)O[C@H]3CO)O[C@@H](CO)[C@@H]2O)(C(=O)O)C[C@H]1O (some centres undefined) |  |  | 63 | 57 | 50
